Measurements: patent US8202885B2, “Bridged six-membered ring compounds” (Actelion Pharmaceuticals Ltd., priority 2007, dated 2012)

Test system: human Cav3.1 Cav3.2 or Cav3.3 channel
Assay: In vitro assay T channel (FLIPR calcium fluorescence)
Assay type: cell-based
Details: HEK293 cells expressing human Cav3.1, Cav3.2 or Cav3.3; 10 mM Ca2+-induced fluo-4 fluorescence; determined up to 10 μM; read-out: T channel antagonistic activity IC50
In short: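 IC50 (nM) is the antagonist concentration halving the area under the fluorescence peak evoked by 10 mM Ca2+, relative to vehicle, with testing up to 10 μM. Fluo-4-loaded HEK293 cells expressing each human Cav3 subtype received compound 3 min before Ca2+ addition (TEA-based buffer, pH 7.2); signal monitored 8 min at 2 s intervals.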

Work on `COC(C)(C)C(=O)NCCCN(C)CC[C@]1(O)C[C@H]2CC[C@@H]1C=C2c1ccccc1` (relative stereo) [Example 44, rac-N-(3-{[2-((1R*,2R*,4R*)-2-Hydroxy-5-phenyl-bicyclo[2.2.2]oct-5-en-2-yl)-ethyl]-methyl-amino}-propyl)-2-methoxy-2-methyl-propionamide] yielded an IC50 greater than 10 µM.

`COc1ccc(C)c2nc(CCCN(C)CC[C@]3(OC(=O)C(C)C)C[C@H]4CC[C@@H]3C=C4c3ccccc3)[nH]c12` (relative stereo) [Example 30A, rac-Isobutyric acid (1R*,2R*,4R*)-2-(2-{[3-(7-methoxy-4-methyl-1H-benzoimidazol-2-yl)-propyl]-methyl-amino}-ethyl)-5-phenyl-bicyclo[2.2.2]oct-5-en-2-yl ester] was tested, and the IC50 was 1.25 µM.

In the case of `CCOc1ccc(CCN(CC)CC[C@]2(OC(=O)C(C)C)C[C@H]3CC[C@@H]2C=C3c2ccccc2)cc1OCC` (relative stereo) [Example 38A, rac-Isobutyric acid (1R*,2R*,4R*)-2-(2-{[2-(3,4-diethoxy-phenyl)-ethyl]-ethyl-amino}-ethyl)-5-phenyl-bicyclo[2.2.2]oct-5-en-2-yl ester], the IC50 is reported as 2.51 µM.

`COc1cc(OC)c2nc(CCCN(C)CC[C@]3(OC(=O)C(C)C)C[C@H]4CC[C@@H]3C=C4c3ccccc3)[nH]c2c1` (relative stereo) [Example 59A, rac-Isobutyric acid (1R*,2R*,4R*)-2-(2-{[3-(4,6-dimethoxy-1H-benzoimidazol-2-yl)-propyl]-methyl-amino}-ethyl)-5-phenyl-bicyclo[2.2.2]oct-5-en-2-yl ester] was tested, and the IC50 was 0.952 µM.

`Cc1cc2cc(CCCN(C)CC[C@]3(O)C[C@H]4CC[C@@H]3C=C4c3ccccc3)cnc2o1` (relative stereo) [Example 42, rac-(1R*,2R*,4R*)-2-(2-{Methyl-[3-(2-methyl-furo[2,3-b]pyridin-5-yl)-propyl]-amino}-ethyl)-5-phenyl-bicyclo[2.2.2]oct-5-en-2-ol] gave an IC50 greater than 10 µM.

With `CC(C)C(=O)O[C@@]1(CCN(C)CCCc2nc3cc(Cl)c(Cl)cc3[nH]2)C[C@H]2CC[C@@H]1C=C2c1ccccc1` (relative stereo) [Example 27A, rac-Isobutyric acid (1R*,2R*,4R*)-2-(2-{[3-(5,6-dichloro-1H-benzoimidazol-2-yl)-propyl]-methyl-amino}-ethyl)-5-phenyl-bicyclo[2.2.2]oct-5-en-2-yl ester] the IC50 was 6.74 µM.

Molecule `CC(C)C(=O)O[C@@]1(CCN(C)CCc2nc3ccccc3[nH]2)C[C@H]2CC[C@@H]1C=C2c1ccccc1` (relative stereo) [Example 13A, rac-Isobutyric acid (1R*,2R*,4R*)-2-(2-{[2-(1H-benzoimidazol-2-yl)-ethyl]-methyl-amino}-ethyl)-5-phenyl-bicyclo[2.2.2]oct-5-en-2-yl ester] has an IC50 of 4.34 µM.

In the case of “rac-(1R*,3R*,4R*)-1,2,3,4,9,10-Hexahydro-3-hydroxy-3-{N-methyl-N-(3-benzimidazol-2-ylpropyl)aminoethyl}-1,4-ethanophenanthrene [Example 18]”, the IC50 is reported as 1.34 µM.

`COc1cccc2[nH]c(CCCN(C)CC[C@]3(OC(=O)C(C)(C)C)C[C@H]4CC[C@@H]3C=C4c3ccccc3)nc12` (relative stereo) [Example 26D, rac-2,2-Dimethyl propionic acid (1R*,2R*,4R*)-2-(2-{[3-(4-methoxy-1H-benzoimidazol-2-yl)-propyl]-methyl-amino}-ethyl)-5-phenyl-bicyclo[2.2.2]oct-5-en-2-yl ester] was tested, and the IC50 was 1.05 µM.

`COc1ccc2[nH]c(CCCN(C)CC[C@]3(O)C[C@H]4CC[C@@H]3C=C4c3ccccc3)nc2c1` (relative stereo) [Example 29, rac-(1R*,2R*,4R*)-2-(2-{[3-(5-Methoxy-1H-benzoimidazol-2-yl)-propyl]-methyl-amino}-ethyl)-5-phenyl-bicyclo[2.2.2]oct-5-en-2-ol] showed an IC50 greater than 10 µM.

In the case of `Cc1cccc(C2=C[C@H]3CC[C@@H]2C[C@]3(CCN(C)CCCc2nc3ccccc3[nH]2)OC(=O)C(C)C)c1` (relative stereo) [Example 5A, rac-Isobutyric acid (1R*,2R*,4R*)-2-(2-{[3-(1H-benzoimidazol-2-yl)-propyl]-methyl-amino}-ethyl)-5-(3-methyl-phenyl)-bicyclo[2.2.2]oct-5-en-2-yl ester], the IC50 is reported as 3.45 µM.

With `CCOc1ccc(CCN(CC)CC[C@]2(O)C[C@H]3CC[C@@H]2C=C3c2ccccc2)cc1OCC` (relative stereo) [Example 38, rac-(1R*,2R*,4R*)-2-(2-{[2-(3,4-Diethoxy-phenyl)-ethyl]-ethyl-amino}-ethyl)-5-phenyl-bicyclo[2.2.2]oct-5-en-2-ol] the IC50 was 6.7 µM.

In the case of `COc1ccc(CCCN(C)CC[C@]2(O)C[C@H]3CC[C@@H]2C=C3c2ccccc2)cc1OC` (relative stereo) [Example 39, rac-(1R*,2R*,4R*)-2-(2-{[3-(3,4-Dimethoxy-phenyl)-propyl]-methyl-amino}-ethyl)-5-phenyl-bicyclo[2.2.2]oct-5-en-2-ol], the IC50 is reported as greater than 10 µM.

With `CC(C)Oc1cccc2nc(CCCN(C)CC[C@]3(O)C[C@H]4CC[C@@H]3C=C4c3ccccc3)[nH]c12` (relative stereo) [Example 33, rac-(1R*,2R*,4R*)-2-(2-{[3-(7-Isopropoxy-1H-benzoimidazol-2-yl)-propyl]-methyl-amino}-ethyl)-5-phenyl-bicyclo[2.2.2]oct-5-en-2-ol] the IC50 was 2.99 µM.

Work on `CN(CCCc1nc2ccccc2[nH]1)CC[C@]1(O)C[C@H]2CC[C@@H]1C[C@@]21OCc2ccccc21` (relative stereo) [Example 79, rac-(1R*,2R*,4R*,5R*)-5-(2-{[3-(1H-Benzoimidazol-2-yl)-propyl]-methyl-amino}-ethyl)-3′H-spiro(bicyclo[2.2.2]octane-2,1′-isobenzofuran)-5-ol] yielded an IC50 of 2.92 µM.

`CO[C@@]1(c2ccccc2)C[C@H]2CC[C@@H]1C[C@@]2(O)CCN(C)CCCc1nc2ccccc2[nH]1` (relative stereo) [Example 78, rac-(1R*,2R*,4R*,5S*)-2-(2-{[3-(1H-Benzoimidazol-2-yl)-propyl]-methyl-amino}-ethyl)-5-methoxy-5-phenyl-bicyclo[2.2.2]octan-2-ol] was tested, and the IC50 was greater than 10 µM.

For `COc1cc2nc(CCCN(C)CC[C@]3(OC(=O)C(C)C)C[C@H]4CC[C@@H]3C=C4c3ccccc3)[nH]c2cc1OC` (relative stereo) [Example 28A, rac-Isobutyric acid (1R*,2R*,4R*)-2-(2-{[3-(5,6-dimethoxy-1H-benzoimidazol-2-yl)-propyl]-methyl-amino}-ethyl)-5-phenyl-bicyclo[2.2.2]oct-5-en-2-yl ester], the IC50 was 3.46 µM.

`CN(CCCc1ccnc2ccccc12)CC[C@]1(O)C[C@H]2CC[C@@H]1C=C2c1ccccc1` (relative stereo) [Example 50, rac-(1R*,2R*,4R*)-2-{2-[Methyl-(3-quinolin-4-yl-propyl)-amino]-ethyl}-5-phenyl-bicyclo[2.2.2]oct-5-en-2-ol] showed an IC50 greater than 10 µM.

`Cc1ccccc1C1=C[C@H]2CC[C@@H]1C[C@@]2(O)CCN(C)CCCc1nc2ccccc2[nH]1` (relative stereo) [Example 4, rac-(1R*,2R*,4R*)-2-(2-{[3-(1H-Benzoimidazol-2-yl)-propyl]-methyl-amino}-ethyl)-5-(2-methyl-phenyl)-bicyclo[2.2.2]oct-5-en-2-ol] showed an IC50 of 3.61 µM.

In the case of `COc1cccc2c1nc(CCCN(C)CC[C@]1(O)C[C@H]3CC[C@@H]1C=C3c1ccccc1)n2C` (relative stereo) [Example 37, rac-(1R*,2R*,4R*)-2-(2-{[3-(4-Methoxy-1-methyl-1H-benzoimidazol-2-yl)-propyl]-methyl-amino}-ethyl)-5-phenyl-bicyclo[2.2.2]oct-5-en-2-ol], the IC50 is reported as 6.65 µM.

For `COCC(C)(COC)C(=O)NCCCN(C)CC[C@]1(OC(=O)C(C)C)C[C@H]2CC[C@@H]1C=C2c1ccccc1` (relative stereo) [Example 43A, rac-Isobutyric acid (1R*,2R*,4R*)-2-(2-{[3-(3-methoxy-2-methoxymethyl-2-methyl-propionylamino)-propyl]-methyl-amino}-ethyl)-5-phenyl-bicyclo[2.2.2]oct-5-en-2-yl ester], the IC50 was 2.71 µM.

`CC(C)C(=O)O[C@@]1(CCN(C)CCCc2ccccc2)C[C@H]2CC[C@@H]1C=C2c1ccccc1` (relative stereo) [Example 15A, rac-Isobutyric acid (1R*,2R*,4R*)-2-{2-[methyl-(3-phenyl-propyl)-amino]-ethyl}-5-phenyl-bicyclo[2.2.2]oct-5-en-2-yl ester] gave an IC50 of 8.63 µM.

For `COc1cccc2c1nc(CCCN(C)CC[C@]1(OC(=O)C(C)C)C[C@H]3CC[C@@H]1C=C3c1ccccc1)n2C` (relative stereo) [Example 37A, rac-Isobutyric acid (1R*,2R*,4R*)-2-(2-{[3-(4-methoxy-1-methyl-1H-benzoimidazol-2-yl)-propyl]-methyl-amino}-ethyl)-5-phenyl-bicyclo[2.2.2]oct-5-en-2-yl ester], the IC50 was 0.935 µM.

`COc1cccc2nc(CCN(C)CC[C@]3(O)C[C@H]4CC[C@@H]3C=C4c3ccccc3)[nH]c12` (relative stereo) [Example 32, rac-(1R*,2R*,4R*)-2-(2-{[2-(7-Methoxy-1H-benzoimidazol-2-yl)-ethyl]-methyl-amino}-ethyl)-5-phenyl-bicyclo[2.2.2]oct-5-en-2-ol] showed an IC50 of 1.48 µM.

Work on `CC(C)C(=O)Oc1cccc2nc(CCCN(C)CC[C@]3(OC(=O)C(C)C)C[C@H]4CC[C@@H]3C=C4c3ccccc3)[nH]c12` (relative stereo) [Example 34A, rac-Isobutyric acid (1R*,2R*,4R*)-2-(2-{[3-(7-isobutyryloxy-1H-benzoimidazol-2-yl)-propyl]-methyl-amino}-ethyl)-5-phenyl-bicyclo[2.2.2]oct-5-en-2-yl ester] yielded an IC50 of 4.33 µM.

With `CC(C)C(=O)O[C@@]1(CCN(C)CCCc2cnc3ccccc3c2)C[C@H]2CC[C@@H]1C=C2c1ccccc1` (relative stereo) [Example 49A, rac-Isobutyric acid (1R*,2R*,4R*)-2-{2-[methyl-(3-quinolin-3-yl-propyl)-amino]-ethyl}-5-phenyl-bicyclo[2.2.2]oct-5-en-2-yl ester] the IC50 was 8.5 µM.
